Molecules are shown by their SMILES. Values joined by “and” are separate entries in the source; they are usually repeats but may differ in a detail not shown here. Equal values may be shown once.

Experimental findings from US9150553B2, “Carboxamide compounds and their use as calpain inhibitors” (AbbVie Deutschland GmbH & Co. KG, priority 2007, dated 2015) are described below.

This data set in a line: In vivo pharmacokinetic profile after oral dosing in rats (plasma, LC-MS). On the set-up: species or system Sprague-Dawley rats. The following applies: plasma prodrug I-2 after oral 10 mg/kg of prodrug example 2, male rats, lines = rat 1, 2, 3 and mean. As to the method: The compound described in example 2 was prepared as a solution (20% EtOH, 40% PEG400, qc. Ampuwa) at a concentration appropriate for a 10 mg/kg (5 mL/kg) oral dose.
Three male Sprague-Dawley rats (200-300 g; Elevage Janvier, France) were used in this study. Due to size, each rat was housed in Macrolon Type 111 cages under conventional barrier conditions. The animals were fasted overnight prior to dosing and throughout the duration of the study but were permitted water ad libitum and were permitted food typically six hours postdosing. Control animals were placed under deep isoflurane anesthia and euthanized by bleeding (cardiac puncture) and their tissues removed and used as blank standards during sample analysis.
The group contained three rats. The group of rats received a 10 mg/kg (5 mL/kg) dose orally by gavage. At the conclusion of the study, rats were euthanized by bleeding (cardiac puncture) under deep isoflurane anesthesia.
Potassium-EDTA blood samples (approx. 200-300 μl) were withdrawn from the tail vein of each animal by butterfly catheter 0.25, 0.5, 1, 1.5, 2, 3, 4, 6, 8 and 24 hours after drug administration. Upon collection, the samples were promptly placed in an ice bath, and within 2 hours after sample collection they were centrifuged at about 4° C. Upon completion of the study, animals were put under deep anesthesia using isoflurane and euthanized by bleeding (cardiac puncture). The resulting plasma samples were placed in clean PP-tubes and stored in a freezer until analysis.
The plasma samples were assayed for the compound I and corresponding drug II using appropriate liquid chromatography mass spectrometry procedures.
Peak plasma concentrations (Cmax) and the time to peak plasma concentration (Tmax) were read directly from the plasma concentration data for each rat. The drug and the prodrug plasma concentration data were submitted to multi-exponential curve fitting using WinNonlin. The area under the plasma concentration-time curve from 0 to t hours (time of the last measurable plasma concentration) after dosing (AUC0-t) was calculated using the linear trapezoidal rule for the plasma concentration-time profiles. The residual area extrapolated to infinity, determined as the final measured plasma concentration (Ct) divided by the terminal elimination rate constant (B), was added to AUC0-t to produce the total area under the curve (AUC0-∞). The apparent total plasma clearance (CLp) was calculated by dividing the administered dose by the AUC0-∞. The initial volume of distribution (Vc) was calculated as the dose divided by the extrapolated concentration at time=0 (C0). […] The bioavailability was calculated as the dose-normalized AUC0∞, from the oral dose divided by the corresponding value derived from an intravenous dose.

The mark [1] stands for this setting: male, Sprague-Dawley, rat, plasma, po, 10 mg/kg.

As a reminder, the AUC is concentration integrated over time. As usually defined, the Tmax is the time from dosing to the highest level. As to `NC(=O)C1(C(Cc2ccccc2)NC(=O)c2cccnc2-n2ccc(-c3cccc(C(F)(F)F)c3)n2)OCCO1` (stereo not shown) [Compound I-2, N-{1-[2-(Aminocarbonyl)-1,3-dioxolan-2-yl]-2-phenylethyl}-2-{3-[3-(trifluoromethyl)phenyl]-1H-pyrazol-1-yl}nicotinamide], the “prodrug AUC” value was 1315 ng·h/mL and 1485 ng·h/mL and 2297 ng·h/mL; the “prodrug Tmax” value was found to be 30 min. Under setting [1], the AUC amounted to 1700 ng·h/mL and the Tmax is 18 min.
